The term IC50 denotes the concentration needed to halve the response being measured. One may read the CC50 as the concentration that lowers cell viability or growth by half.

In one data set the target is T1, KDM2B (Homo sapiens, UniProt Q8NHM5).
T1 construct: host or cells: Sf9 cells
T1 sequence (Q8NHM5 1-1336): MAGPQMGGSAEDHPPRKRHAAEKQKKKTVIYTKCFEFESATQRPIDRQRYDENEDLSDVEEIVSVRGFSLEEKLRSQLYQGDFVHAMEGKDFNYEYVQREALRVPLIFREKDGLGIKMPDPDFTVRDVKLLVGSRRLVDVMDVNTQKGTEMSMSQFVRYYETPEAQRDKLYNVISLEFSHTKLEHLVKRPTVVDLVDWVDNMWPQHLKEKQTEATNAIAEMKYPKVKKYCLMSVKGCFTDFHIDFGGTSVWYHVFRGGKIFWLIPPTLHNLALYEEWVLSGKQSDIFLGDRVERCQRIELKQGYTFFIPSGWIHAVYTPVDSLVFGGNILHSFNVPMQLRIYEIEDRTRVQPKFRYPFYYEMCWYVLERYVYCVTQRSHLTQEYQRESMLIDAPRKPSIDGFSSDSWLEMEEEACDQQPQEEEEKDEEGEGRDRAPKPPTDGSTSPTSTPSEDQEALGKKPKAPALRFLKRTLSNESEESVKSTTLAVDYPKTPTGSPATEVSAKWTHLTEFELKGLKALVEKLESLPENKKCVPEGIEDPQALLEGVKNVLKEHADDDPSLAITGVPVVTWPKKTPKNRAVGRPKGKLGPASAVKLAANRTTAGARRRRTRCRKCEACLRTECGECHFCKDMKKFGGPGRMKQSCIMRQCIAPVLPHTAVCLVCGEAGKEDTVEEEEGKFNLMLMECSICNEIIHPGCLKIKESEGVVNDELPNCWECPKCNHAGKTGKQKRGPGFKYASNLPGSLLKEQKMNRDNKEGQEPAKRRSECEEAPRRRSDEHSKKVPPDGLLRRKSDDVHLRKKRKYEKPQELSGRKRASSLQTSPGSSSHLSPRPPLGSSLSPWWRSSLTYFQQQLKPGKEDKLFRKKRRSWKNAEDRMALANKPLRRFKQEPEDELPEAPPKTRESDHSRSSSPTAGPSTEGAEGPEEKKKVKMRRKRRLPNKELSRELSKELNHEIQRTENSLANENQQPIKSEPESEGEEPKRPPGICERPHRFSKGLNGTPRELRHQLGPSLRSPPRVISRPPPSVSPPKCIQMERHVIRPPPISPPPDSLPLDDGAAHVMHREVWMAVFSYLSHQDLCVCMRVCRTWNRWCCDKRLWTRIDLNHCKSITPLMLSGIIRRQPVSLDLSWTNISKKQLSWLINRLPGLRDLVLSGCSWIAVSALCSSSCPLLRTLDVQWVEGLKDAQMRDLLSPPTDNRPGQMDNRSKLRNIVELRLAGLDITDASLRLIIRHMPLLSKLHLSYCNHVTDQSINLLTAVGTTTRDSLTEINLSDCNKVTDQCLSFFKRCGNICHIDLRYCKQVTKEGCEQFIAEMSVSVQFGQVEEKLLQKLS
As to the kind of experiment: Biochemical KDM inhibition assay (LANCE), KDM2B. The note with it: read-out: Biochemical IC50 KDM 2B. As to the method: Representative compounds were characterized for their inhibition of KDM5 using biotinylated histone substrates. Inhibition was measured in vitro (CEREP Poitier, Le Bois l'Evêque, France) following experimental conditions described in Table 2. Briefly, the test compound, reference compound or water (control) was mixed with about 2-20 ng of recombinant, Human enzymes expressed in Sf9 cells in a buffer containing 45 mM Hepes/Tris (pH 7), 5 μM FAS, 100 μM ascorbic acid, 10 μM 2-oxoglutarate, 0.01% Tween 20 and 0.01% BSA. Thereafter, the reaction was initiated by adding the biotin-labeled substrate, and the mixture was incubated for 10-30 min at room temperature. For basal control measurements, the enzyme was omitted from the reaction mixture. Following incubation the reaction was stopped by adding 1 mM EDTA. After 5 min, the anti-methyl histone antibody labeled with europium chelate and the Ulight streptavidine (Perkin Elmer Waltham, Mass.) were added. After 60 min more, the fluorescence transfer was measured at λex=320 nm and λem=620 and λem=665 nm using a microplate reader (Envision, Perkin Elmer) (LANCE). The enzyme activity was determined by dividing the signal measured at λem=665 nm by that measured at 620 nm (ratio).
In general terms: TR-FRET usually uses a lanthanide donor and a delayed reading to cut background.

The target in another data set is T2, KDM4A (Homo sapiens, UniProt O75164).
T2 construct: host or cells: Sf9 cells
T2 sequence (O75164 1-1064): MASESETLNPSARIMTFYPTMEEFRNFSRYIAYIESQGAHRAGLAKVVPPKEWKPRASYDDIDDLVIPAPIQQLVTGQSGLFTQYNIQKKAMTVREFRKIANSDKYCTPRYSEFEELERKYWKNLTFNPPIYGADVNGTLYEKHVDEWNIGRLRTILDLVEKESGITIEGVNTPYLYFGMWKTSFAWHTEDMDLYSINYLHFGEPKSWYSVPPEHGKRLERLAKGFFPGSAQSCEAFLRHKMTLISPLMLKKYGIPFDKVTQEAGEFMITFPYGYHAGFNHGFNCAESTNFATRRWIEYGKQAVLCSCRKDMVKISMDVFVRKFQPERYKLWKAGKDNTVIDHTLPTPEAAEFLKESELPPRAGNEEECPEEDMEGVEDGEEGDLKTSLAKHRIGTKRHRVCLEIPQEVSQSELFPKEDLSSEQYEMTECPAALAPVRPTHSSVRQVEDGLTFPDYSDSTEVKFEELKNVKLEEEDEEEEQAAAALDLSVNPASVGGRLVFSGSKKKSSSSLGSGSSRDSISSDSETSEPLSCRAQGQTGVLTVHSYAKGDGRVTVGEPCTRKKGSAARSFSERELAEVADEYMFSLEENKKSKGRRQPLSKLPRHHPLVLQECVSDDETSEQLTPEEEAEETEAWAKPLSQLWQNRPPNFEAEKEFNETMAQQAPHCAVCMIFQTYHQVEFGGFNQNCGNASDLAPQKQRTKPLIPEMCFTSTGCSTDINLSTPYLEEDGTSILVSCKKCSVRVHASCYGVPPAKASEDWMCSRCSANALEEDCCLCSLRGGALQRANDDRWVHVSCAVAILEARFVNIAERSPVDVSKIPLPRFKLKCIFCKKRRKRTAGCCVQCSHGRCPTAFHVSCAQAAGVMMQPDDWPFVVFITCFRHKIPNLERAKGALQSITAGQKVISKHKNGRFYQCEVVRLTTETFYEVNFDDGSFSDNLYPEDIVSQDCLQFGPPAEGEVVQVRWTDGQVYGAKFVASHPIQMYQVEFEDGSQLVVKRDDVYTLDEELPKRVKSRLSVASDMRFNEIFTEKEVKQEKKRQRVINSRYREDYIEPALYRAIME
The data set can be described thus: Biochemical KDM inhibition assay (LANCE), KDM4A. The note with it: read-out: Biochemical IC50 KDM 4A.

A short description of data set [1]: Alamar Blue cell viability assay. Type of data set: cell-based. The note with it: human; D 28; PHH donor 8181; virus 21p. On the technique in general: Resazurin is reduced to fluorescent resorufin, in cell work by metabolically active cells.

For the molecule `Nc1c(C(=O)O)ccnc1C(=O)O` [Example 7, reference compound], the IC50 stood at 0.16 µM on KDM2B and 0.49 µM on KDM4A. The CC50 at 28 day in data set [1] was over 50 µM.
Take `CCOC(=O)c1ccnc(CNCC(=O)N(CC)CCN(C)C)c1` [Example 8]: half-maximal cytotoxicity in data set [1] (CC50 at 28 day) was put at 20 µM.
As to `CCN(CCN(C)C)C(=O)CNCc1cc(C(=O)O)ccn1` [Example 9], the results for the IC50 on KDM2B and on KDM4A were 1.6 µM and 0.35 µM, respectively. Besides, the CC50 at 28 day in data set [1] was over 100 µM.
In the case of `Cc1cc(Cl)ccc1COc1ccnn1-c1cc(C(=O)O)ccn1` [Example 11], the IC50 on KDM2B was 0.66 µM; on KDM4A, 1 µM.
On to `O=C(O)c1ccncc1Nc1nn(CCN2CCC(F)(F)CC2)c2ccc(F)cc12` [Example 13], for which the IC50 was 2.4 µM on KDM2B and 1.1 µM on KDM4A.
The corresponding values for `CCN(CC)CCCCNCc1cc(C(=O)O)ccn1` [Example 18] are 12 µM and 0.39 µM.

For the origin of these results see patent US20160303095A1, “METHODS OF TREATING HEPATITIS B VIRUS” (Gilead Sciences, Inc., priority 2015, published 2016).
